Values quoted from earlier work, collected in patent US9439985B2, “Compositions for radiolabeling diethylenetriaminepentaacetic acid (DTPA)-dextran” (Navidea Biopharmaceuticals, Inc., priority 2009, dated 2016).

How the values were obtained:
[1] = test system: mannose-binding glycoprotein receptors in macrophages and dendritic cells present in the sentinel node; conditions: rabbit; Hoh et al.
[2] = test system: mannose-terminated glycoprotein receptors; conditions: in vitro; Vera et al.

| Substance | biodistribution after injection [1] | binding to mannose-terminated glycoprotein receptors [2] |
| --- | --- | --- |
| 99mTc-DTPA-mannosyl-dextran | diffuses into lymph channels, flows to the sentinel node, and binds to mannose-binding glycoprotein receptors | – |
| DTPA-mannosyl-dextran | – | binds avidly |
